We go through four molecules from ChEMBL document CHEMBL1142765, “Discodermolide analogues as the chemical component of combination bacteriolytic therapy” (Bioorg Med Chem Lett, 2005).

Type in all cases: functional, organism-based
What all share (conditions): Homo sapiens

One assay concerns SK-OV-3. The assay is described as follows: Inhibitory concentration […] exhibited against SKOV3 cell line […].
The test system of a further assay is A549. Nature of the assay: Inhibitory concentration […] exhibited against A549 cell line […].
Another assay relates to MCF7. Nature of the assay: Inhibitory concentration […] exhibited against MCF-7 cell line […].

As a reminder, the IC50 is the concentration at which inhibition is half-maximal. A lower IC50 goes with inhibition by little substance. In the case of `C=C/C=C\[C@H](C)[C@H](OC(N)=O)[C@@H](C)[C@H](O)[C@@H](C)C/C(C)=C\[C@H](C)[C@@H](O)[C@@H](C)/C=C\[C@@H](O)C[C@@H]1OC(=O)C=C[C@H]1C`, the values for the IC50 in the assay with SK-OV-3, in the assay with A549 and with MCF7 were 3.4 nM, 3.7 nM and 2.1 nM, respectively.

Consider `C=C/C=C\[C@H](C)[C@H](OC(N)=O)[C@@H](C)[C@H](O)[C@@H](C)C/C(C)=C\[C@H](C)[C@@H](O)[C@@H](C)/C=C\[C@@H](O)C[C@@H]1OC(=O)C(C)=C[C@H]1C`, for which the IC50 is 3.4 nM in the assay with SK-OV-3, 8.6 nM with A549 and 5.6 nM in the assay with MCF7.

`C=C/C=C\[C@H](C)[C@H](OC(N)=O)[C@@H](C)[C@H](O)[C@@H](C)C/C(C)=C\[C@H](C)[C@@H](O)[C@@H](C)/C=C\[C@@H](O)C[C@@H]1OC(=O)[C@H](C)[C@@H](O)[C@H]1C` [DISERMOLIDE]: the figures for the IC50 with SK-OV-3, in the assay on A549 and in the assay with MCF7 were 21 nM, 22 nM and 28 nM, respectively.

In the case of `C=C/C=C\[C@H](C)[C@H](OC(N)=O)[C@@H](C)[C@H](O)[C@@H](C)C/C=C\[C@H](C)[C@@H](O)[C@@H](C)/C=C\[C@@H](O)C[C@@H]1OC(=O)[C@H](C)[C@@H](O)[C@H]1C`, the half-inhibitory concentration (IC50) in the assay on SK-OV-3 worked out at 35 nM; in the assay with A549, 50 nM; in the assay with MCF7, 46 nM.
